Assay results reported in patent US8618137B2 (priority 2008, dated 2013).
Like-named read-outs stand apart in the source and are kept apart here. Marks after values point to notes of the source that are not given here.

Assays:
Assay type in all cases: in vivo
[1] = system: Plasmopara viticola (the causal agent of grape downy mildew); experiment: Test A: grape downy mildew, grape seedlings inoculated then sprayed with test suspension, visual disease rating; details: 100 = 100% disease control, 0 = no control relative to controls
From the text: General protocol for preparing test suspensions for Tests A-B2: The test compounds were first dissolved in acetone in an amount equal to 3% of the final volume and then suspended at the desired concentration (in ppm) in acetone and purified water (50/50 mix by volume) containing 250 ppm of the surfactant Trem® 014 (polyhydric alcohol esters). The resulting test suspensions were then used in Tests A-B2. Spraying a 200 ppm test suspension to the point of run-off on the test plants was the equivalent of a rate of 800 g/ha.
Grape seedlings were inoculated with a spore suspension of Plasmopara viticola (the causal agent of grape downy mildew) and incubated in a saturated atmosphere at 20° C. for 24 h. After a short drying period, the grape seedlings were sprayed with the test suspension to the point of run-off, then moved to a growth chamber at 20° C. for 5 days, and then back into a saturated atmosphere at 20° C. for 24 h. Upon removal, visual disease ratings were made.
Results for Tests A-B2 are given in Table A. In the Table, a rating of 100 indicates 100% disease control and a rating of 0 indicates no disease control (relative to the controls). All results are for 10 ppm except where followed by an “*” which indicates 40 ppm and “**” which indicates 200 ppm.

[2] = system: Phytophthora infestans (the causal agent of tomato late blight); details: sprayed 17 h after inoculation, 100 = 100% disease control, 0 = no control
[3] = system: Phytophthora infestans (the causal agent of tomato late blight); details: sprayed the day before inoculation, 100 = 100% disease control, 0 = no control
[4] = test suspension 10 ppm, listed as 2

CC(C)=NOC(C(=O)N1CCC(c2nc(C3=NOC(c4c(F)cccc4F)C3)cs2)CC1)c1ccccc1 (mixture of isomers) [compound 32]
Test A rating (disease control) ([1]; test suspension 40 ppm (*)): 94* % | Test B2 rating (disease control) ([2]; test suspension 40 ppm (*)): 92* % | Test B1 rating (disease control) ([3]; test suspension 40 ppm (*)): 100* %

CC(C)=NOCC(=O)N1CCC(c2nc(C3=NOC(c4ccccc4C#N)C3)cs2)CC1 (stereo not drawn) [compound 41]
Test A rating (disease control) ([1]; test suspension 10 ppm): 100% | Test B2 rating (disease control) ([2]; test suspension 10 ppm): 99% | Test B1 rating (disease control) ([3]; test suspension 10 ppm): 100%

CC(=NOCC(=O)N1CCC(c2nc(C3=NOC(n4c(=O)oc5ccccc54)C3)cs2)CC1)C(F)(F)F (stereo not drawn) [compound 43]
Test A rating (disease control) ([1]; test suspension 10 ppm): 100% | Test B2 rating (disease control) ([2]; test suspension 10 ppm): 99% | Test B1 rating (disease control) ([3]; test suspension 10 ppm): 100%

CC(C)=NOCC(=O)N1CCC(c2nc(C3=NOC(c4ccccc4C)C3)cs2)CC1 (racemic) [compound 14]
Test A rating (disease control) ([1]; test suspension 10 ppm): 100% | Test B2 rating (disease control) ([2]; test suspension 10 ppm): 88% | Test B1 rating (disease control) ([3]; test suspension 10 ppm): 98%

CC1=NN(CC(=O)N2CCC(c3nc(C4=NOC(c5c(F)cccc5F)C4)cs3)CC2)C(C)C1 (stereo not drawn) [Compound 40, 1-[4-[4-[5-(2,6-difluorophenyl)-4,5-dihydro-3-isoxazolyl]-2-thiazolyl]-1-piperidinyl]-2-(4,5-dihydro-3,5-dimethyl-1H-pyrazol-1-yl]ethanone]
Test A rating (disease control) ([1]; test suspension 40 ppm (*)): 97* % | Test B2 rating (disease control) ([2]; test suspension 40 ppm (*)): 99* % | Test B1 rating (disease control) ([3]; test suspension 40 ppm (*)): 100* %

O=C(CON=CC(Cl)(Cl)Cl)N1CCC(c2nc(C3=NOC(c4c(F)cccc4F)C3)cs2)CC1 (racemic) [compound 17]
Test A rating (disease control) ([1]; test suspension 10 ppm): 66% | Test B2 rating (disease control) ([2]; test suspension 10 ppm): 47% | Test B1 rating (disease control) ([3]; test suspension 10 ppm): 97%

CC(C)=NOCCC(=O)N1CCC(c2nc(C3=NOC(c4c(F)cccc4F)C3)cs2)CC1 (racemic) [compound 21]
Test A rating (disease control) ([1]; test suspension 40 ppm (*)): 100* % | Test B2 rating (disease control) ([2]; test suspension 40 ppm (*)): 98* % | Test B1 rating (disease control) ([3]; test suspension 40 ppm (*)): 100* %

2,2,2-trifluoroacetaldehyde, O-[2-[4-[4-[5-(2,6-difluorophenyl)-4,5-dihydro-3-isoxazolyl]-2-thiazolyl]-1-piperidinyl]-2-oxoethyl]oxime [Compound 3]
Test A rating (disease control) ([1]; test suspension 10 ppm): 100% | Test B2 rating (disease control) ([2]; test suspension 10 ppm): 99% | Test B1 rating (disease control) ([3]; test suspension 10 ppm): 100%

O=C(CON=C1CCCC1)N1CCC(c2nc(C3=NOC(c4c(F)cccc4F)C3)cs2)CC1 (stereo not drawn) [Compound 5]
Test A rating (disease control) ([1]; test suspension 10 ppm): 95% | Test A rating (disease control) [1, 4]: 100% | Test B2 rating (disease control) ([2]; test suspension 10 ppm): 98% | Test B2 rating (disease control) [2, 4]: 100% | Test B1 rating (disease control) ([3]; test suspension 10 ppm): 95% | Test B1 rating (disease control) [3, 4]: 100%

CC(=NOCC(=O)N1CCC(c2nc(C3=NOC(c4ccccc4C#N)C3)cs2)CC1)C(F)(F)F (stereo not drawn) [compound 42]
Test A rating (disease control) ([1]; test suspension 10 ppm): 100% | Test B2 rating (disease control) ([2]; test suspension 10 ppm): 99% | Test B1 rating (disease control) ([3]; test suspension 10 ppm): 100%
